Laboratory results as given in patent publication US4070458A, “Novel physiologically active peptide and its n-acyl derivatives and processes for producing thereof” (priority 1974, dated 1978).
Values after ≈ are worked out from the molar mass of the structure shown. Like-named read-outs stand apart in the source and are kept apart here.

Tests used:
[1] = system: enzyme which decomposes R-Val-Val-X-Ala-X to Val-X-Ala-X; test: Effect of various inhibitors and metal ions on the enzyme activity; format: biochemical, Bacillus sphaericus ATCC 14577
pepsin (SIGMA, 2XCRY) = biological target: T1, pepsin (SIGMA, 2XCRY) (Sus scrofa, UniProt P00791); test: Assay of pepsin-inhibitory activity (casein digestion); format: biochemical
T1 construct: purchased SIGMA 2XCRY
Description: Assay of pepsin-inhibitory activity in this invention was performed according to the following method: A mixture of 1 ml of 0.6 %, by weight, highly purified casein dissolved in 0.08M lactate buffer solution, pH 2.2, 0.7 ml of 0.02M KCl-HCl buffer solution, pH 2.0, and 0.2 ml of solution containing the compound sample was incubated at 37° C for three minutes. To this mixture 4 mcg of pepsin (SIGMA, 2XCRY) dissolved in 0.1 ml of 0.2M KCl-HCl buffer solution were added. The mixture was incubated at 37° C for 30 minutes. The reaction was stopped by the addition of 2.0 ml of 1.7M perchloric acid. After one hour at room temperature, the optical density (a) of the supernatant liquid was read at 280 mμ. An inhibition rate was obtained according to:
where (b) is the optical density at 280 mμ of the tube without the sample solution.
The ID50 is defined as the amount necessary for 50 % of the inhibition rate.
(§1) As an example of one of the physiological activities of the peptide and N-acyl derivatives thereof obtained according to the present invention, anti-pepsin and anti-cathepsin D activities and also acute toxicity are given in Table 8. The activities (ID50) were assayed according to the method described above and The Journal of Antibiotics 25 689 (1972). The antiprotease activities of the peptide and N-acyl derivatives thereof are extremely high.

mice = test: Acute toxicity in mice; format: in vivo
Description: as §1
(§2) Note: Acute toxicity was examined by administering the compounds to the
(§3) mice by abdominal injection
(§4) *This value was obtained by intravenous injection.

[2] = Solubility of the hydrolysis product in organic solvents; format: physicochemical
Solubility in water = format: physicochemical
Excerpt: The solubilities in water of the N-acyl derivatives according to the present invention are shown in Table 10 compared with the known N-acyl peptides having physiological activity.

Cathepsin D = test: Anti-cathepsin D activity (method of The Journal of Antibiotics 25 689 (1972)); format: biochemical
Description: as §1

Acute toxicity in mice = format: in vivo; conditions: mouse, in vivo, ip, abdominal injection
Description: as §1, §2, §3, §4

Stomach ulcers in rats = test: Stress stomach ulcers in rats (method of Takagi et al.); format: in vivo
Description: Stomach ulcers in rats made by the method described in Takagi et al. in the Japanese Journal of Pharmacology, 18, 9-19, […], that is, placing male rats in a cage at 23° C. for 22 hours, are protected or therapetuically treated by the compounds. When 50 mg/kg of pepstatin and the compounds according to the invention were orally given 30 minutes before the stress, and the rats were sacrificed 48 hours afte the stress, the curative ratio of the ulcers was 60 - 75%. When the dose was 10 mg/kg, the inhibition percentage of the ulcers was 50 - 60%.

[3] = Concentration 2 mM, Control (No Addition) 100
[4] = casein, pH 2, 37° C, 30 minutes, read-out: ID50 Pepsin (converted)
[5] = Concentration 10 mM, Control (No Addition) 100

T1 sequence (P00791 60-385): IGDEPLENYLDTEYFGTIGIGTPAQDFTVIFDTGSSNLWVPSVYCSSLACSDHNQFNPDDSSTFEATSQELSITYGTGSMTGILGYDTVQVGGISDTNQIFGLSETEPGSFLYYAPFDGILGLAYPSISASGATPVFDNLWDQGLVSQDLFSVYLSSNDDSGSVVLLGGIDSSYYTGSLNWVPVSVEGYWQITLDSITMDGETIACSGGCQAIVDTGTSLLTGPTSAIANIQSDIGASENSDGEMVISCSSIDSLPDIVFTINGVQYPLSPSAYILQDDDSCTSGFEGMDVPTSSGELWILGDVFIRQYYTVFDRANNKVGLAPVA

OCCS [β-Mercaptoethanol]
Inhibition of the enzyme ([1]; 2mM): Inhibition | Relative activity [1, 3]: 0

c1cnc2c(c1)ccc1cccnc12 [o-Phenanthroline]
Inhibition of the enzyme ([1]; 2mM): Inhibition | Relative activity [1, 3]: 0

CC(C)C[C@H](NC(=O)[C@H](C)NC(=O)C[C@H](O)[C@H](CC(C)C)NC(=O)[C@@H](N)C(C)C)[C@@H](O)CC(=O)O [Val-X-Ala-X, L-valyl-4-amino-3-hydroxy-6-methylheptanoyl-L-alanyl-4-amino-3-hydroxy-6-m ethylheptanoic acid]
IC50 (pepsin (SIGMA, 2XCRY)): 19900 nM | Acute toxicity LD0 (mice; abdominal injection): ≥ 5000 mg/kg | Solubility ([2]; ether, ethyl acetate, and butyl acetate): insoluble | Solubility ([2]; methanol, ethanol, pyridine, and acetic acid): soluble | Solubility ([2]; n-propanol, n-butanol, n-amyl alcohol and acetone): slightly soluble

CC(=O)C(CC(C)C)NC(=O)[C@H](C)NC(=O)CC(O)C(CC(C)C)NC(=O)[C@@H](NC(=O)[C@@H](NC(=O)CC(C)C)C(C)C)C(C)C (stereo partly drawn) [Pepstanone A, isovaleryl-Val-Val-X-Ala-X']
Solubility in water (Solubility in water; 20° C): 50 µg/mL (≈ 78.1 µM)

[Cl][Hg][Cl] [HgCl2]
Inhibition of the enzyme ([1]; 2mM): Inhibition

CC(C)C[C@H](NC(=O)[C@H](C)NC(=O)C[C@H](O)[C@H](CC(C)C)NC(=O)[C@@H](NC(=O)C(C)O)C(C)C)[C@@H](O)CC(=O)O (some centres unmarked) [Lactoyl-Val-X-Ala-X, lactoyl-Val-X-Ala-X]
IC50 (pepsin (SIGMA, 2XCRY); [4]): 34.8 nM | Acute toxicity LD0 (mice; abdominal injection): ≥ 6000 mg/kg | Acute toxicity LD0 (mice; intravenous injection): ≥ 550 mg/kg | Water solubility compared with other derivatives (Solubility in water): much more water soluble | Solubility in water (Solubility in water; 20° C): ≥ 50,000 mcg/ml

O[C@H](CS)[C@H](O)CS (racemic) [Dithiothreitol]
Inhibition of the enzyme ([1]; 2mM): Inhibition | Relative activity [1, 3]: 0

CC(C)C[C@H](NC(=O)[C@H](C)NC(=O)C[C@H](O)[C@H](CC(C)C)NC(=O)[C@@H](NC(=O)c1ccccc1)C(C)C)[C@@H](O)CC(=O)O [Benzoyl-Val-X-Ala-X, N-benzoyl-Val-X-Ala-X]
ID50 Cathepsin D (Cathepsin D): 0.05 µg/mL (≈ 0.0824 µM) | LD50 (Acute toxicity in mice): 1350 mg/kg

O=C(O)CN(CCN(CC(=O)O)CC(=O)O)CC(=O)O [Ethylenediaminetetraacetic Acid]
Relative activity [1, 3]: 30

CC(C)C[C@H](NC(=O)[C@H](C)NC(=O)C[C@H](O)[C@H](CC(C)C)NC(=O)[C@@H](NC(=O)C(C)Oc1ccccc1)C(C)C)[C@@H](O)CC(=O)O (some centres unmarked) [Phenoxypropionyl-Val-X-Ala-X, N-2-phenoxypropionyl-Val-X-Ala-X]
IC50 (pepsin (SIGMA, 2XCRY); [4]): 30.7 nM | LD50 (Acute toxicity in mice): 2100 mg/kg | Solubility in water (Solubility in water; 20° C): 15,000 mcg/ml

CC(C)CC(=O)N[C@H](C(=O)N[C@H](C(=O)N[C@@H](CC(C)C)[C@@H](O)CC(=O)N[C@@H](C)C(=O)N[C@@H](CC(C)C)[C@@H](O)CC(=O)O)C(C)C)C(C)C [pepstatin]
curative ratio of the ulcers (Stomach ulcers in rats; 50 mg/kg orally 30 minutes before the stress, rats sacrificed 48 hours after the stress): 60 - 75% | cure of ulcers (Stomach ulcers in rats; 50 - 200 mg/kg immediately after the stress and once daily for 4 days): rapid cure of ulcers was proven

[Cl-].[Cl-].[Zn+2] [Zinc Chloride]
Relative activity [1, 3]: 66 | Relative activity [1, 5]: 44

CC(=O)[O-].CC(=O)[O-].[Hg+2] [Mercuric Acetate]
Relative activity [1]: 0

CC(C)CC(=O)N[C@H](C(=O)N[C@@H](CC(C)C)[C@@H](O)CC(=O)N[C@@H](C)C(=O)N[C@@H](CC(C)C)[C@@H](O)CC(=O)O)C(C)C [Isovaleryl-Val-X-Ala-X, N-isovaleryl-Val-X-Ala-X]
IC50 (pepsin (SIGMA, 2XCRY); [4]): 17 nM | Acute toxicity LD0 (mice; abdominal injection): ≥ 3000 mg/kg | Solubility in water (Solubility in water; 20° C): 5,000 mcg/ml

O=C(O)CI [Monoiodoacetic Acid]
Relative activity [1]: 84

CC(C)C[C@H](NC(=O)[C@H](C)NC(=O)C[C@H](O)[C@H](CC(C)C)NC(=O)[C@@H](NC(=O)C(C)C)C(C)C)[C@@H](O)CC(=O)O [Isobutyryl-Val-X-Ala-X, N-isobutyryl-Val-X-Ala-X]
IC50 (pepsin (SIGMA, 2XCRY); [4]): 36.7 nM

[Cl][Co][Cl] [Cobalt Chloride]
Relative activity [1, 3]: 134 | Relative activity [1, 5]: 166

[Ca+2].[Cl-].[Cl-] [Calcium Chloride]
Relative activity [1]: 110 | increase in activity [1]: 29%

CC(C)CC(=O)N[C@H](C(=O)N[C@H](C(=O)N[C@@H](CC(C)C)[C@@H](O)CC(=O)N[C@@H](C)C(=O)N[C@@H](CC(C)C)[C@@H](O)CC(=O)O)C(C)C)C(C)C [Pepstatin A]
Solubility in water (Solubility in water): 200 µg/mL (≈ 292 µM)

CCCCCCCCCCCCCCCC(=O)N[C@H](C(=O)N[C@@H](CC(C)C)[C@@H](O)CC(=O)N[C@@H](C)C(=O)N[C@@H](CC(C)C)[C@@H](O)CC(=O)O)C(C)C [Palmitoyl-Val-X-Ala-X, N-palmitoyl-Val-X-Ala-X]
IC50 (pepsin (SIGMA, 2XCRY); [4]): 607 nM

CC(C)C[C@H](NC(=O)[C@H](C)NC(=O)C[C@H](O)[C@H](CC(C)C)NC(=O)[C@@H](NC(=O)COc1ccccc1)C(C)C)[C@@H](O)CC(=O)O [Phenoxyacetyl-Val-X-Ala-X, N-phenoxyacetyl-Val-X-Ala-X]
IC50 (pepsin (SIGMA, 2XCRY)): 31.4 nM | LD50 (Acute toxicity in mice): 1500 mg/kg | Solubility in water (Solubility in water; 20° C): 20,000 mcg/ml

CC(=O)[O-].CC(=O)[O-].[Pb+2] [Lead Acetate]
Relative activity [1]: 43

O=C1CCC(=O)N1Br [N-Bromosuccinimide]
Inhibition of the enzyme ([1]; 2mM): Inhibition | Relative activity [1, 3]: 0

O=C(O)c1cc[c]([Hg][Cl])cc1 [p-Chloromercuribenzoate]
Inhibition of the enzyme [1]: Inhibition | Relative activity [1]: 2

CCCCCC(=O)N[C@H](C(=O)N[C@H](C(=O)N[C@@H](CC(C)C)[C@@H](O)CC(=O)N[C@@H](C)C(=O)N[C@@H](CC(C)C)[C@@H](O)CC(=O)O)C(C)C)C(C)C [Pepstatin B, n-caproyl-L-valyl-L-valyl-4-amino-3-hydroxy-6-methylheptanoyl-L-alanyl-4-a mino-3-hydroxy-6-methylheptanoic acid]
Solubility in water (Solubility in water; 20° C): 100 µg/mL (≈ 143 µM)

[N-]=[N+]=[N-].[Na+] [NaN3]
Relative activity [1]: 100
